# Several values for one entry are separate records, joined by “and”; a condition that tells them apart may be missing. Equal entries are not always repeated.
# Key:
# [1] = test system: Herpes simplex type 1 virus (HFEM strain); assay: Plaque reduction test in virus-infected Vero cell monolayers; assay type: cell-based; details: Human alphaherpesvirus 1, 144 h, concentration causing a 50% reduction in the number of virus plaques, Vero cells, 37°C for 6 days, read-out: PDD50 (the source's name)
# Description: (§1) Vero (African Green Monkey Kidney) cells were grown to confluence in 6 well multidishes, each well being 3.5 cm in diameter. The cells were incubated with Herpes simplex type 1 virus (HFEM strain) and overlaid with 0.5 ml of 0.9% agarose (w/v) in maintenance medium containing the test compound at a range of concentrations from 50 µg/ml in half-log dilution steps. The virus infected cultures were then incubated at 37°C for 6 days before fixing in 4% formaldehyde solution and staining with carbolfuchsin. The dishes were then examined to find what concentration of test compound causing a 50% reduction in the number of virus plaques formed (PDD50 value) and the minimum concentration of test compound which killed the cell monolayer, leaving a clear zone devoid of cells and virus plaques (MTD).
# [2] = Minimum concentration killing the cell monolayer (MTD) in the plaque reduction test; assay type: cell-based, African Green Monkey; details: monkey; minimum concentration which killed the cell monolayer; Vero cells, 37°C for 6 days
# Description: as §1
SMILES,IC50 [1],MCC at 144 h [2] [µg/mL]
"CCCC(=O)OC[C@H]1O[C@@H](n2cc(/C=C/Br)c(=O)[nH]c2=O)C[C@@H]1OC(=O)CCC [Example 1, E-5-(2-Bromovinyl)-3',5'-di-O-butyryl-2'-deoxyuridine]",0.2 µg/mL and 420 nM,> 100
"CCCCC(=O)OC[C@H]1O[C@@H](n2cc(/C=C/Br)c(=O)[nH]c2=O)C[C@@H]1OC(=O)CCCC [Example 2, E-5-(2-Bromovinyl)-3',5'-di-O-valeryl-2'-deoxyuridine]",0.2 µg/mL and 400 nM,> 100
"CC(=O)O[C@H]1C[C@H](n2cc(/C=C/Br)c(=O)[nH]c2=O)O[C@@H]1CO [Example 6, 3'-O-Acetyl-E-5-(2-bromovinyl)-2'-deoxyuridine]",0.41 µg/mL and 1.1 µM,> 100
"CCCCC(=O)O[C@H]1C[C@H](n2cc(/C=C/Br)c(=O)[nH]c2=O)O[C@@H]1CO [Example 7, E-5-(2-Bromovinyl)-3'-O-valeryl-2'-deoxyuridine]",0.18 µg/mL and 430 nM,> 100
"CC(=O)OC[C@H]1O[C@@H](n2cc(/C=C/Br)c(=O)[nH]c2=O)C[C@@H]1O [Example 8, 5'-O-Acetyl-E-5-(2-bromovinyl)-2'-deoxyuridine]",0.32 µg/mL and 850 nM,> 100
"CCCCC(=O)OC[C@H]1O[C@@H](n2cc(/C=C/Br)c(=O)[nH]c2=O)C[C@@H]1O [Example 9, E-5-(2-Bromovinyl)-5'-O-valeryl-2'-deoxyuridine]",0.16 µg/mL and 380 nM,> 100
"O=C(O)CCC(=O)OC[C@H]1O[C@@H](n2cc(/C=C/Br)c(=O)[nH]c2=O)C[C@@H]1OC(=O)CCC(=O)O [Example 10, E-5-(2-Bromovinyl)-3'.5'-di-O-(3-carboxypropionyl)-2'-deoxyuridine monohydrate]",55 µg/mL and 103 µM,> 100
"O=C(O)CCC(=O)O[C@H]1C[C@H](n2cc(/C=C/Br)c(=O)[nH]c2=O)O[C@@H]1CO [Example 11b, E-5-(2-bromovinyl)-3'-O-(3-carboxypropionyl)-2'-deoxyuridine]",0.18 µg/mL and 400 nM,> 100
"O=C(O)CCC(=O)OC[C@H]1O[C@@H](n2cc(/C=C/Br)c(=O)[nH]c2=O)C[C@@H]1O [Example 12, E-5-(2-bromovinyl)-5'-O-(3-carboxypropionyl)-2'-deoxyuridine]",0.35 µg/mL and 800 nM,> 100
"CC(C)(C)C(=O)OC[C@H]1O[C@@H](n2cc(/C=C/Br)c(=O)[nH]c2=O)C[C@@H]1O [Example 13, E-5-(2-Bromoyinyl)-5'-O-pivaloyl-2'-deoxyuridine]",0.52 µg/mL and 1.3 µM,> 100
"CC(C)(C)C(=O)OC[C@H]1O[C@@H](n2cc(/C=C/Br)c(=O)[nH]c2=O)C[C@@H]1OC(=O)C(C)(C)C [Example 14, E-5-(2-bromovinyl)-3',5'-di-0-pivaloyl-2'-deoxyuridine]",8.5 µg/mL and 17 µM,> 100
